What was measured:
Neuroblastoma IMR-32 = experiment: In vitro cytotoxicity (sulforhodamine B) against human cancer cell lines, Neuroblastoma IMR-32; type: cell-based; settings: read-out: % GROWTH INHIBITION Neuroblastoma IMR-32; for inhibition at 50 µM: Conc 5 × 10^−5 M, 48 hours
Protocol: (§1) The human cancer cell lines procured from National Cancer Institute, Frederick, U.S.A., were used in present study. Cells were grown in tissue culture flasks in complete growth medium (RPMI-1640 medium with 2 mM glutamine, 100 μg/mL streptomycin, pH 7.4, sterilized by filtration and supplemented with 10% fetal bovine serum and 100 units/ml penicillin before use) at 37° C. in an atmosphere of 5% CO2 and 90% relative humidity in a carbon dioxide incubator. The cells at subconfluent stage were harvested from the flask by treatment with trypsin (0.05% in PBS containing 0.02% EDTA) for determination of cytotoxicity. The cell suspension of the required cell density was prepared in complete growth medium with gentamycin (50 μg/mL) for determination of cytotoxicity.
(§2) Stock solutions of 2×10^−2M of test materials were prepared in DMSO. The stock solutions were serially diluted with complete growth medium containing 50 μg/ml of gentamycin to obtain working test solution of 2×10^−5M to obtain final concentration of 1×10^−5 M respectively.
(§3) In vitro cytotoxicity against human cancer cell lines was determined (Monks of al., J. Natl. Cancer Inst. 1991, 83, 757-766). The 100 μL of cell suspension was added to each well of the 96-well tissue culture plate. The cells were incubated for 24 hours (at 37° C. in an atmosphere of 5% CO2 and 90% relative humidity in a carbon dioxide incubator). Test materials in complete growth medium (100 μL) were added after 24 hours incubation to the wells containing cells. The plates were further incubated for 48 hours in a carbon dioxide incubator after addition of test material. The cell growth was stopped by gently layering trichloroacetic acid (50 μL, 50% w/v) on top of the medium in all the wells. The plates were incubated at 4° C. for one hour to fix the cells attached to the bottom of the wells. The liquid of all the wells was then gently decanted and discarded. The plates were washed five times with distilled water and air-dried. Cell growth was measured by staining with sulforhodamine B dye (Skehan et al., J. Natl. Cancer Inst. 1990, 82, 1107-1112). The adsorbed dye was dissolved in Tris-Buffer (100 μL, 0.01M, pH 10.4) and plates were gently stirred for 10 minutes on a mechanical stirrer. The optical density (OD) was recorded on ELISA reader at 540 nm.
(§4) The cell growth was calculated by subtracting mean OD value of respective blank from the mean OD value of experimental set. Percent growth in presence of test material was calculated considering the growth in absence of any test material as 100% and in turn percent growth inhibition in presence of test material was calculated. Suitable blank, controls and positive controls were included in the study.

Lung A-549 = experiment: In vitro cytotoxicity (sulforhodamine B) against human cancer cell lines, Lung A-549; type: cell-based; settings: read-out: % GROWTH INHIBITION Lung A-549; for inhibition at 50 µM: A549, Conc 5 × 10^−5 M, 48 hours
Protocol: as §1, §2, §3, §4

Ovary IGR-OV-1 = experiment: In vitro cytotoxicity (sulforhodamine B) against human cancer cell lines, Ovary IGR-OV-1; type: cell-based; settings: IGROV-1, Conc 5 × 10^−5 M, 48 hours, read-out: % GROWTH INHIBITION Ovary IGR-OV-1
Protocol: as §1, §2, §3, §4

Prostrate DU-145 = experiment: In vitro cytotoxicity (sulforhodamine B) against human cancer cell lines, Prostrate DU-145; type: cell-based; settings: read-out: % GROWTH INHIBITION Prostrate DU-145; for inhibition at 50 µM: Conc 5 × 10^−5 M, 48 hours
Protocol: as §1, §2, §3, §4

Colon Colo-205 = experiment: In vitro cytotoxicity (sulforhodamine B) against human cancer cell lines, Colon Colo-205; type: cell-based; settings: read-out: % GROWTH INHIBITION Colon Colo-205; for inhibition at 50 µM: Conc 5 × 10^−5 M, 48 hours
Protocol: as §1, §2, §3, §4

Prostrate PC-3 = experiment: In vitro cytotoxicity (sulforhodamine B) against human cancer cell lines, Prostrate PC-3; type: cell-based; settings: read-out: % GROWTH INHIBITION Prostrate PC-3; for inhibition at 50 µM: Conc 5 × 10^−5 M, 48 hours
Protocol: as §1, §2, §3, §4

Breast MCF-7 = experiment: In vitro cytotoxicity (sulforhodamine B) against human cancer cell lines, Breast MCF-7; type: cell-based; settings: read-out: % GROWTH INHIBITION Breast MCF-7; for inhibition at 50 µM: MCF7, Conc 5 × 10^−5 M, 48 hours
Protocol: as §1, §2, §3, §4

P388 leukemia = settings: NCI Report on NSC 369397, 25 Oct. 1983; cited from earlier work
[1] = test system: cell line panels consisting of 60 lines; settings: nine disease-related subpanels; cited from earlier work
[2] = test system: Ehrlich ascites tumor (EAT) cells; settings: MTT assay, read-out: IC50 (drug concentration causing 50% growth inhibition of the tumor cells); cited from earlier work
[3] = Conc 1 × 10^−5 M, positive control

C=C(C#N)[C@H](O)C[C@H]1O[C@@H]2O[C@]3(C)CC[C@H]4[C@H](C)CC[C@@H]([C@H]1C)[C@@]24OO3 (single isomer, unassigned) [Compound 3b]
inhibition at 50 µM (Neuroblastoma IMR-32): 48%
inhibition at 50 µM (Lung A-549): 66%
inhibition at 50 µM (Ovary IGR-OV-1): 42%
inhibition at 50 µM (Prostrate DU-145): 46%
inhibition at 50 µM (Colon Colo-205): 56%
inhibition at 50 µM (Prostrate PC-3): 65%
inhibition at 50 µM (Breast MCF-7): 46%

C=C(C#N)[C@@H](O)C[C@H]1O[C@@H]2O[C@]3(C)CC[C@H]4[C@H](C)CC[C@@H]([C@H]1C)[C@@]24OO3 (single isomer, unassigned) [Compound 3b′]
inhibition at 50 µM (Neuroblastoma IMR-32): 62%
inhibition at 50 µM (Lung A-549): 77%
inhibition at 50 µM (Ovary IGR-OV-1): 56%
inhibition at 50 µM (Prostrate DU-145): 60%
inhibition at 50 µM (Colon Colo-205): 75%
inhibition at 50 µM (Prostrate PC-3): 78%
inhibition at 50 µM (Breast MCF-7): 55%

O=c1[nH]cc(F)c(=O)[nH]1 [5-Fluorouracil, reference compound]
inhibition at 20 µM (Colon Colo-205; Conc 2 × 10^−5 M, positive control): 54%

COc1cccc2c1C(=O)c1c(O)c3c(c(O)c1C2=O)C[C@@](O)(C(=O)CO)C[C@@H]3O[C@H]1C[C@H](N)[C@H](O)[C@H](C)O1 [Adriamycin, reference compound]
inhibition at 1 µM (Neuroblastoma IMR-32; Conc 1 × 10^−6 M, positive control): 70%
inhibition at 1 µM (Breast MCF-7; MCF7, Conc 1 × 10^−6 M, positive control): 72%

C[C@@H]1CC[C@H]2[C@@H](C)C(=O)O[C@@H]3O[C@@]4(C)CC[C@@H]1[C@]32OO4 [Artemisinin, artemisinin]
inhibition at 50 µM (Neuroblastoma IMR-32): 23%
activity against P388 leukemia (P388 leukemia): inactive
inhibition at 50 µM (Lung A-549): 29%
anticancer activity on 60 cell line panels [1]: very little anticancer activity
inhibition at 50 µM (Ovary IGR-OV-1): 26%
inhibition at 50 µM (Prostrate DU-145): 38%
inhibition at 50 µM (Colon Colo-205): 40%
inhibition at 50 µM (Prostrate PC-3): 22%
IC50 [2]: 29.8 µM
inhibition at 50 µM (Breast MCF-7): 34%

C=C(C(=O)OC)[C@H](O)C[C@H]1O[C@@H]2O[C@]3(C)CC[C@H]4[C@H](C)CC[C@@H]([C@H]1C)[C@@]24OO3 [Compound 3a]
inhibition at 50 µM (Neuroblastoma IMR-32): 56%
inhibition at 50 µM (Lung A-549): 70%
inhibition at 50 µM (Ovary IGR-OV-1): 63%

C=C(C(C)=O)[C@H](O)C[C@H]1O[C@@H]2O[C@]3(C)CC[C@H]4[C@H](C)CC[C@@H]([C@H]1C)[C@@]24OO3 [Compound 3c]
inhibition at 50 µM (Neuroblastoma IMR-32): 79%
inhibition at 50 µM (Lung A-549): 85%
inhibition at 50 µM (Ovary IGR-OV-1): 33%
inhibition at 50 µM (Prostrate DU-145): 73%
inhibition at 50 µM (Colon Colo-205): 100%
inhibition at 50 µM (Prostrate PC-3): 81%
inhibition at 50 µM (Breast MCF-7): 66%

C[C@H]1[C@@H](C[C@@H](O)C2=CCCCC2=O)O[C@@H]2O[C@]3(C)CC[C@H]4[C@H](C)CC[C@@H]1[C@@]24OO3 [Compound 3d]
inhibition at 50 µM (Neuroblastoma IMR-32): 72%
inhibition at 50 µM (Lung A-549): 66%
inhibition at 50 µM (Ovary IGR-OV-1): 60%
inhibition at 50 µM (Prostrate DU-145): 52%
inhibition at 50 µM (Colon Colo-205): 63%
inhibition at 50 µM (Prostrate PC-3): 68%
inhibition at 50 µM (Breast MCF-7): 43%

CO[C@@]12[C@H](COC(N)=O)C3=C(C(=O)C(C)=C(N)C3=O)N1C[C@@H]1N[C@@H]12 [Mitomycin, reference compound]
inhibition at 10 µM (Prostrate DU-145; [3]): 92%
inhibition at 10 µM (Prostrate PC-3; [3]): 54%

CC(=O)O[C@H]1C(=O)[C@@]2(C)[C@H]([C@H](OC(=O)c3ccccc3)[C@]3(O)C[C@H](OC(=O)[C@H](O)[C@@H](NC(=O)c4ccccc4)c4ccccc4)C(C)=C1C3(C)C)[C@]1(OC(C)=O)CO[C@@H]1C[C@@H]2O [Paclitaxel, reference compound]
inhibition at 10 µM (Lung A-549; A549, Conc 1 × 10^−5 M, positive control): 69%

Reference: patent US8841466B2, “Series of artemisinin derivatives and process for preparation thereof” (Council of Scientific & Industrial Research, priority 2010, dated 2014)
